Values of other authors as cited in patent US6455557B1 (Elan Pharmaceuticals, Inc., priority 2001, dated 2002).
Read-outs that look alike come from different tables or passages of the source.

Tests used:
[1] = system: plasma proteins; settings: independent of concentration over the therapeutic range
[2] = not given; remark: listed apart in the source
[3] = not given; remark: listed apart in the source
[4] = oral administration, tablet formulation

For `Clc1cccc(Cl)c1N=C1NCCN1` [clonidine], the “Efficacy in treating spastic conditions” value (human, in vivo) is listed as “ineffective”.

For `Clc1ccc2nsnc2c1NC1=NCCN1` [tizanidine, 5-chloro-4-(2-imidazolin-2-ylamino)-2,1,3-benzothiadiazole], the “Bound to plasma proteins” value [1] is given as “approximately 30%”, the “Sedation cases rated as severe” value ([2]; multiple dose, controlled clinical studies) is given as 10% and the “Patients reporting sedation as an adverse event” value ([2]; multiple dose, controlled clinical studies, any dose) is given as 48%. The “Patients continuing to report drowsiness 6 hours following dosing” value ([2]; single dose of 8 mg) was 13%, the “Patients continuing to report drowsiness 6 hours following dosing” value ([2]; single dose of 16 mg) was 51% and the “Onset of drowsiness following dosing” value ([2]; single dose study) was 30 min. The “Peak of drowsiness following dosing” value ([2]; single dose study) was 1.5 h, the “Patients reporting that they were drowsy during the 6 hour study” value ([2]; single dose study, 8 mg) was 76% and the “Patients reporting that they were drowsy during the 6 hour study” value ([2]; single dose study, 16 mg) was 92%. The “Muscle strength, as assessed by objective means” value (patients) was “not to be adversely affected”, the “Spasm frequency and clonus” value (patients) was “reduced” and the “Subjective muscle weakness compared with baclofen or diazepam recipients” value (patients) was “reported less often”. For the same compound, the “Time of maximum anti-spastic effects after administration” value (some studies) was at most 2 h, the “Fraction of an administered dose metabolized” value ([3]; in vivo) was “approximately 95%” and the “Mean steady state volume of distribution” value ([3]; intravenous administration, healthy adult volunteers) was 2.4 L/kg. For the same compound, the Absolute oral bioavailability ([3]; oral) was “approximately 40%”, the Half-life [3, 4] was “approximately 2.5 hours” and the “Time of peak plasma concentrations after dosing” value [3, 4] was 1.5 h. For the same compound, the “Dose linearity of pharmacokinetics” value ([3]; over a dose of 1 to 20 mg) was “linear pharmacokinetics”, the “Extent of tizanidine absorption with food” value ([3]; tablet formulation, with food) was “not affected” and the “Increase of Cmax by food” value ([3]; tablet formulation, with food) was “approximately one-third”. The “Shortening of time to peak concentration by food” value ([3]; tablet formulation, with food) was “approximately 40 minutes”.
